Usually IC50 stands for the concentration needed to halve the response being measured. For orientation: EC50 means the concentration at which the effect is half-maximal.

Assay [1] deals with T1, HCV NS5B polymerase 1a-H77 (Hepatitis C virus genotype 1a, UniProt P27958).
T1 construct: six-histidine tag; made in house; host or cells: E. coli
In words: biochemical. The arrangement: species or system HCV genotype 1a. To be noted: enzyme, strain 1a H77; read-out: HCV Polymerase Strain 1a H77 IC50. The method, boiled down: (§1)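 E. coli-expressed NS5B (residues 1-570, His-tagged) transcribed a 2.1 kb HCV 1b negative-strand 3′-end RNA template (5 nM) with 20 μM CTP, 20 μM ATP and 0.284 μM [3H]UTP for 3 h at 30° C. Spermine-precipitated RNA was filter-captured and counted by scintillation; IC50 from nonlinear regression.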

Assay [2] addresses T2, HCV NS5B polymerase 1a-H77-C316Y (Hepatitis C virus genotype 1a, UniProt P27958, C2736Y).
T2 construct: six-histidine tag; made in house; host or cells: E. coli
The assay is described as follows: biochemical. The arrangement: species or system HCV genotype 1a. The method, boiled down: as §1

Assay [3] relates to HCV NS5B polymerase 1a-H77-C316Y. In words: biochemical. On the set-up: species or system HCV genotype 1a. Particulars: ratio of enzyme IC50s, 1a H77-C316Y / 1a H77. The gist of the method:
as §1

The target of assay [4] is T3, HCV NS5B polymerase 1b BK strain (Hepatitis C virus genotype 1b, UniProt P26663).
T3 construct: six-histidine tag; made in house; host or cells: E. coli
T3 sequence (P26663 2420-2989): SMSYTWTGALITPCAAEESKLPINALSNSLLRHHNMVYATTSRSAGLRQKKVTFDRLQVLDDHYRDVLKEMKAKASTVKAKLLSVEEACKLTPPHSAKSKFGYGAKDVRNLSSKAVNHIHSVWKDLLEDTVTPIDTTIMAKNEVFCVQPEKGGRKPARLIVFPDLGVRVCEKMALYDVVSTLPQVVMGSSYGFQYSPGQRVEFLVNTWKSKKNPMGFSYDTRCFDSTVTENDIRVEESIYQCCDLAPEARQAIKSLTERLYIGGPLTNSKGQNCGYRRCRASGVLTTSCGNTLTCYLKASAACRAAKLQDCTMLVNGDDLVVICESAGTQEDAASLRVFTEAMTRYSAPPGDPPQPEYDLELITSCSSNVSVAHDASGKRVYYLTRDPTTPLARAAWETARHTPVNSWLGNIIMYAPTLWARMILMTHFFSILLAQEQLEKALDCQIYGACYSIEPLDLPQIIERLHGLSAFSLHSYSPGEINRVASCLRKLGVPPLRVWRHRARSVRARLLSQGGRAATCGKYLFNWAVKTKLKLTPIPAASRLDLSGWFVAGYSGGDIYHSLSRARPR
In words: HCV NS5B polymerase enzymatic inhibition assay, strain 1b BK. The format is biochemical. Particulars: enzyme, strain 1b BK; read-out: HCV Polymerase Strain 1b BK IC50. The gist of the method:
as §1

The test system of assay [5] is HCV 1a-H77 subgenomic replicon. In words: microbe, parasite or virus in culture. To be noted: Hepatitis C virus, stable replicon. The format is cell-based, HCV genotype 1a. In general terms: A replicon is a self-replicating genome or part of one, used to study replication in cells.
Assay [6] concerns HCV 1b-BB7 subgenomic replicon. The assay is described as follows: microbe, parasite or virus in culture. The format is cell-based, HCV genotype 1b. To be noted: Hepatitis C virus, stable replicon.
Assay [7] concerns chimeric replicon with 2a-J6CF-derived NS5B. The assay is described as follows: microbe, parasite or virus in culture. The format is cell-based, HCV genotype 2a. To be noted: Hepatitis C virus, read-out: 2a chimera 5% FBS EC50.
Assay [8] concerns chimeric replicon with genotype 2b NS5B. In words: microbe, parasite or virus in culture. The format is cell-based, HCV genotype 2b. Particulars: Hepatitis C virus, read-out: 2b chimera 5% FBS EC50.
The test system of assay [9] is chimeric replicon with genotype 3a NS5B. The assay is described as follows: microbe, parasite or virus in culture. The format is cell-based, HCV genotype 3a. Particulars: Hepatitis C virus, read-out: 3a chimera 5% FBS EC50.
Assay [10] deals with chimeric replicon with genotype 4a NS5B. The assay is described as follows: microbe, parasite or virus in culture. The format is cell-based, HCV genotype 4a. To be noted: Hepatitis C virus, read-out: 4a chimera 5% FBS EC50.
Where [11] appears, read: 5% FBS, absence of human plasma, read-out: Stable Replicon 1a H77 5% FBS EC50.
Where [12] appears, read: strain 1a H77, 5% FBS + 40% human plasma, read-out: 1a H77 5% FBS + 40% Human Plasma EC50.
The mark [13] stands for this setting: strain 1a H77, 5% FBS, no human plasma, read-out: 1a H77 5% FBS EC50.
[14] abbreviates: strain 1a H77, 5% FBS, read-out: 1a H77 5% FBS EC50.
Setting [15] is: strain 1b BB7, 5% FBS + 40% human plasma, read-out: 1b BB7 5% FBS + 40% Human Plasma EC50.
The mark [16] stands for this setting: strain 1b BB7, 5% FBS, no human plasma, read-out: 1b BB7 5% FBS EC50.
[17] abbreviates: strain 1b BB7, 5% FBS, read-out: 1b BB7 5% FBS EC50.

Where two headings read alike, the source gives them in different places. Some results are limits rather than exact numbers.

T2 sequence (P27958 2421-2990 C2736Y): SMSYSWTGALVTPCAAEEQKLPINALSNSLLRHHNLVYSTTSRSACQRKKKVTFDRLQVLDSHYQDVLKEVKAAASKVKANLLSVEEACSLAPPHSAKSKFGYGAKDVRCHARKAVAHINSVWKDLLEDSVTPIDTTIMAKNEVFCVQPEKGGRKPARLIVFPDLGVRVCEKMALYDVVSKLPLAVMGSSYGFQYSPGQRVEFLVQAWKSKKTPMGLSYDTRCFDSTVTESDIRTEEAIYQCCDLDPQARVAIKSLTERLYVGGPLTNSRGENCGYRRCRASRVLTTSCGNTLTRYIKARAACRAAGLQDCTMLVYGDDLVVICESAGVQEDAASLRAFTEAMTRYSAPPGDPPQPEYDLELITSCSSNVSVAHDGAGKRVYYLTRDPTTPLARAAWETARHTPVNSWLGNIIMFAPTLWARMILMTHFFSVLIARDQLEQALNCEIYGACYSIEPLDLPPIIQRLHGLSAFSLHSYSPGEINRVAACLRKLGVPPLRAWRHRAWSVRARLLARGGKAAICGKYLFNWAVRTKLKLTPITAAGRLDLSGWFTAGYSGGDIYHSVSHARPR
T1 sequence (P27958 2421-2990): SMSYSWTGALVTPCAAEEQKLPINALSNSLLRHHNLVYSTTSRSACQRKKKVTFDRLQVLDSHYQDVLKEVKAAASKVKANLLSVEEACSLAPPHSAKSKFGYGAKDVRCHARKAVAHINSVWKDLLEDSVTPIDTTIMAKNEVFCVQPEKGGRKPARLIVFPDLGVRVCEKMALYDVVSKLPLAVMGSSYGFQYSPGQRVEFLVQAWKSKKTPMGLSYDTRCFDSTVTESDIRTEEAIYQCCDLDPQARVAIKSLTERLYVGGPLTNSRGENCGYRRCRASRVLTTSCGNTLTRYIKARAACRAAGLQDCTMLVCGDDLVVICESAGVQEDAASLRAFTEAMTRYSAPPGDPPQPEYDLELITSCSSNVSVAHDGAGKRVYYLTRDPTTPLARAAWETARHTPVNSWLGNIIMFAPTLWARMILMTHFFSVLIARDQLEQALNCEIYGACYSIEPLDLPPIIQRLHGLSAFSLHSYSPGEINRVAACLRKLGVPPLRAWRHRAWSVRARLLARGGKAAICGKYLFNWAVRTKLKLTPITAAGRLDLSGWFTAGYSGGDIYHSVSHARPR

As to `CC[S+]([O-])CCCN(c1cc2oc(-c3ccc(F)cc3)c(C3=NOCCN3)c2cc1C1CC1)S(C)(=O)=O` (stereo not drawn) [Example 144, N-[5-cyclopropyl-3-(5,6-dihydro-4H-1,2,4-oxadiazin-3-yl)-2-(4-fluorophenyl)-1-benzofuran-6-yl]-N-[3-(ethylsulfinyl)propyl]methanesulfonamide], the IC50 amounted to 0.007 µM in [1], 0.089 µM in assay [2] and 0.092 µM in assay [4]. The “C316Y/1a Fold Resistance” value in [3] is reported as 13 fold. Further, the EC50 in assay [5] (setting [11]) was found to be 0.039 µM; in assay [5] (setting [12]) it was 0.254 µM; in assay [5] (setting [13]), 0.039 µM; in assay [5] (setting [14]), 0.039 µM; in assay [6] (setting [15]), 0.333 µM; in assay [6] (setting [16]), 0.037 µM. The EC50 is 0.037 µM in [6] (setting [17]); 0.38 µM in assay [7]; 0.419 µM in [8]; 0.062 µM in [9]; 0.38 µM in assay [10].

Take `[2H]C1([2H])NC(c2c(-c3ccc(F)cc3)oc3cc(N(CCCCS(C)(=O)=O)S(C)(=O)=O)c(C4CC4)cc23)=NO1` [Example 150, N-{5-cyclopropyl-3-[(5,5-^2H2)-4,5-dihydro-1,2,4-oxadiazol-3-yl]-2-(4-fluorophenyl)-1-benzofuran-6-yl}-N-[4-(methylsulfonyl)butyl]methanesulfonamide]: the values for the IC50 in assay [1], in [2] and in assay [4] were 0.004 µM, 0.042 µM and 0.005 µM, respectively. Also, the “C316Y/1a Fold Resistance” value in [3] is 11 fold. Also, the EC50 in [5] (setting [11]) came to 0.005 µM; in assay [5] (setting [12]) it was 0.32 µM; in assay [5] (setting [13]) it was 0.005 µM; in [5] (setting [14]), 0.005 µM; in assay [6] (setting [15]) it was 0.231 µM; in assay [6] (setting [16]), 0.004 µM. For the same compound, the EC50 in [6] (setting [17]) came out at 0.004 µM; in [7], 0.043 µM; in assay [8], 0.0309 µM; in [9], 0.007 µM; in [10] it was 0.025 µM.

As to `CC(C)CCN(c1cc2oc(-c3ccc(F)cc3)c(C3=NOCC(=O)N3)c2cc1C1CC1)S(C)(=O)=O` [Example 162, N-[5-cyclopropyl-2-(4-fluorophenyl)-3-(5-oxo-5,6-dihydro-4H-1,2,4-oxadiazin-3-yl)-1-benzofuran-6-yl]-N-(3-methylbutyl)methanesulfonamide], the figures for the IC50 in assay [1], in assay [2] and in assay [4] were 0.0357 µM, 1.2 µM and 0.711 µM, respectively. Also, the “C316Y/1a Fold Resistance” value in assay [3] turned out to be 34 fold. Besides, the 50% effective concentration (EC50) in assay [5] (setting [11]) was determined as 0.248 µM; in assay [5] (setting [12]) it was 10 µM; in [5] (setting [13]) it was 0.248 µM; in assay [5] (setting [14]) it was 0.248 µM; in [6] (setting [15]), 9.71 µM; in assay [6] (setting [16]) it was 0.327 µM. Moreover, the EC50 is 0.327 µM in assay [6] (setting [17]); 1 µM in [7]; 1 µM in [8]; 1 µM in assay [9]; more than 1 µM in assay [10].

Take `CS(=O)(=O)N(CCCc1nnn[nH]1)c1cc2oc(-c3ccc(F)cc3)c(-c3ncc[nH]3)c2cc1C1CC1` [Example 174, N-[5-cyclopropyl-2-(4-fluorophenyl)-3-(1H-imidazol-2-yl)-1-benzofuran-6-yl]-N-[3-(1H-tetrazol-5-yl)propyl]methanesulfonamide]: the concentration for half-maximal inhibition (IC50) in assay [1] stood at 0.0035 µM; in assay [2], 0.04 µM; in assay [4] it was 0.0186 µM. Also, the “C316Y/1a Fold Resistance” value in [3] amounted to 12 fold. Further, the EC50 was determined as 0.32 µM in assay [5] (setting [11]); 4.78 µM in assay [5] (setting [12]); 0.32 µM in assay [5] (setting [13]); 0.32 µM in assay [5] (setting [14]); 3.69 µM in assay [6] (setting [15]); 0.192 µM in assay [6] (setting [16]). In addition, the EC50 in [6] (setting [17]) was 0.192 µM; in assay [7] it was 1 µM; in assay [8], 1 µM; in [9], 0.29 µM; in assay [10], more than 1 µM.

Values taken from patent US20160355530A1, “HEPATITIS C INHIBITORS AND USES THEREOF” (AbbVie Inc., priority 2010, published 2016).
